Reference: patent US11129827B2 (priority 2017, dated 2021)
Read-outs that look alike come from different tables or passages of the source.

Legend:
FAAH [1] = molecular target: FAAH (Homo sapiens (Human), UniProt O00519); experiment: biochemical; conditions: for inhibition at 1 µM: read-out: FAAH (human) % inh. 1 μM
MAGL [2] = molecular target: MAGL (Homo sapiens (Human), UniProt Q99685); experiment: biochemical; conditions: for inhibition at 1 µM: read-out: MAGL (human) % inh. 1 μM
FAAH [3] = molecular target: FAAH (Mus musculus (Mouse), UniProt O08914); experiment: in vivo; conditions: po, read-out: FAAH (mouse) % inh. 5 mg/kg
MAGL [4] = molecular target: MAGL (Mus musculus (Mouse), UniProt O35678); experiment: in vivo; conditions: po, read-out: MAGL (mouse) % inh. 5 mg/kg

SMILES	inhibition at 1 µM (FAAH [1])	IC50 (FAAH [1]; read-out: FAAH (human) IC50)	inhibition at 1 µM (MAGL [2])	IC50 (MAGL [2]; read-out: MAGL (human) IC50)	inhibition at 5 mg/kg (FAAH [3])	inhibition at 5 mg/kg (MAGL [4])	IC50 (FAAH [1])	IC50 (MAGL [2])
NC(=O)c1cncc(OC(=O)N2CCC3(CCN(Cc4ccc(Cl)c(Cl)c4)C3)CC2)c1 [Example 36, 5-Carbamoylpyridin-3-yl 2-(3,4-dichlorobenzyl)-2,8-diazaspiro[4.5]decane-8-carboxylate]	> 75%	< 100 nM	> 75%	< 100 nM	> 75%	25 to 50%	–	–
C[C@@H]1CN(Cc2cc(F)cc(C(F)(F)F)c2)CCN1C(=O)Oc1cncc(C(N)=O)c1 [Example 20, 5-Carbamoylpyridin-3-yl (R)-4-(3-fluoro-5-(trifluoromethyl)benzyl)-2-methylpiperazine-1-carboxylate]	> 75%	< 100 nM	> 75%	< 100 nM	> 75%	> 75%	–	–
CC(C)Oc1cc(CN2CCN(C(=O)Oc3cncc(NS(C)(=O)=O)c3)CC2)ccc1Cl [Example 15, 5-(Methylsulfonamido)pyridin-3-yl 4-(4-chloro-3-isopropoxybenzyl)piperazine-1-carboxylate]	> 75%	–	> 75%	100 to 1000 nM	0 to 25%	0 to 25%	< 100 nM	–
C[C@@H]1CN(Cc2cc(Cl)cc(C(F)(F)F)c2)CCN1C(=O)Oc1cncc(C(N)=O)c1 [Example 65, (R)-5-Carbamoylpyridin-3-yl 4-(3-chloro-5-(trifluoromethyl)benzyl)-2-methylpiperazine-1-carboxylate]	> 75%	100 to 1000 nM	> 75%	100 to 1000 nM	> 75%	> 75%	–	–
NC(=O)c1cncc(OC(=O)N2CCC3(CCN(Cc4cc(Cl)ccc4C(F)(F)F)C3)CC2)c1 [Example 4, 5-Carbamoylpyridin-3-yl 2-(5-chloro-2-(trifluoromethyl)benzyl)-2,8-diazaspiro[4.5]decane-8-carboxylate]	> 75%	< 100 nM	> 75%	< 100 nM	> 75%	> 75%	–	–
O=C(Oc1cncc(C(F)(F)F)c1)N1CCC2(CC1)CN(Cc1cccc(Oc3cncc(C(F)(F)F)c3)c1)C2 [Example 38, 5-(Trifluoromethyl)pyridin-3-yl 2-(3-((5-(trifluoromethyl)pyridin-3-yl)oxy)benzyl)-2,7-diazaspiro[3.5]nonane-7-carboxylate]	> 75%	< 100 nM	> 75%	< 100 nM	> 75%	0 to 25%	–	–
CC(=O)Nc1cncc(OC(=O)N2CCN(Cc3ccc(Cl)c(OC(C)C)c3)CC2)c1 [Example 52, 5-Acetamidopyridin-3-yl 4-(4-chloro-3-isopropoxybenzyl)pipera-zine-1-carboxylate]	> 75%	100 to 1000 nM	> 75%	–	> 75%	0 to 25%	–	< 100 nM
O=C(Oc1cncc(C(F)(F)F)c1)N1CCC2(CC1)CN(Cc1cccc(Oc3ccccc3Cl)c1)C2 [Example 9, 5-(Trifluoromethyl)pyridin-3-yl 2-(3-(2-chlorophenoxy)benzyl)-2,7-diazaspiro[3.5]nonane-7-carboxylate]	–	100 to 1000 nM	–	100 to 1000 nM	–	–	–	–
O=C(Oc1cncc(C(F)(F)F)c1)N1CCC2(CC1)CN(Cc1cccc(Oc3cccc(Cl)c3)c1)C2 [Example 10, 5-(Trifluoromethyl)pyridin-3-yl 2-(3-(3-chlorophenoxy)benzyl)-2,7-diazaspiro[3.5]nonane-7-carboxylate]	–	< 100 nM	–	< 100 nM	–	–	–	–
C[C@@H]1CN(Cc2cc(Cl)cc(Oc3ncccn3)c2)CCN1C(=O)Oc1cncc(C#N)c1 [Example 86, 5-Cyanopyridin-3-yl (R)-4-(3-chloro-5-(pyrimidin-2-yloxy)benzyl)-2-methylpiperazine-1-carboxylate]	> 75%	–	> 75%	–	> 75%	> 75%	< 100 nM	100 to 1000 nM
O=C(Oc1cncc(C(F)(F)F)c1)N1CCC2(CC1)CN(Cc1ccc(Oc3cncnc3)cc1)C2 [Example 34, 5-(Trifluoromethyl)pyridin-3-yl 2-(4-(pyrimidin-5-yloxy)benzyl)-2,7-diazaspiro[3.5]nonane-7-carboxylate]	–	–	–	100 to 1000 nM	–	–	1000 to 10000 nM	–
O=C(Oc1cncc(C(F)(F)F)c1)N1CCC2(CC1)CN(Cc1cccc(Oc3ccccc3Cl)c1Cl)C2 [Example 13, 5-(Trifluoromethyl)pyridin-3-yl 2-(2-chloro-3-(2-chlorophenoxy)benzyl)-2,7-diazaspiro[3.5]nonane-7-carboxylate]	50 to 75%	–	> 75%	–	–	–	–	–
O=C(Oc1cncc(C(F)(F)F)c1)N1CCC2(CC1)CN(Cc1cccc(Oc3cccc(Cl)c3)c1Cl)C2 [Example 40, 5-(Trifluoromethyl)pyridin-3-yl 2-(2-chloro-3-(3-chlorophenoxy)benzyl)-2,7-diazaspiro[3.5]nonane-7-carboxylate]	> 75%	100 to 1000 nM	> 75%	–	–	–	–	< 100 nM
O=C(Oc1cncc(C(F)(F)F)c1)N1CCC2(CC1)CC(Oc1cccc(C(=O)N3CCCC3)c1)C2 [Example 26, 5-(Trifluoromethyl)pyridin-3-yl 2-(3-(pyrrolidine-1-carbonyl)phenoxy)-7-azaspiro[3.5]nonane-7-carboxylate]	> 75%	100 to 1000 nM	> 75%	–	–	–	–	< 100 nM
O=C(Oc1cncc(C(F)(F)F)c1)N1CCC2(CC1)CN(Cc1cccc(Oc3nc4ccccc4s3)c1)C2 [Example 7, 5-(Trifluoromethyl)pyridin-3-yl 2-(3-(benzo[d]thiazol-2-yloxy)benzyl)-2,7-diazaspiro[3.5]nonane-7-carboxylate]	> 75%	< 100 nM	> 75%	< 100 nM	> 75%	25 to 50%	–	–
O=C(Oc1cncc(C(F)(F)F)c1)N1CCC2(CC1)CN(Cc1cccc(Oc3ccnnc3)c1)C2 [Example 33, 5-(Trifluoromethyl)pyridin-3-yl 2-(3-(pyridazin-4-yloxy)benzyl)-2,7-diazaspiro[3.5]nonane-7-carboxylate]	25 to 50%	–	50 to 75%	–	–	–	–	–
O=C(Oc1cncc(C(F)(F)F)c1)N1CCC2(CC1)CN(Cc1ccc(Oc3cccc(Cl)c3)cc1)C2 [Example 2, 5-(Trifluoromethyl)pyridin-3-yl 2-(4-(3-chlorophenoxy)benzyl)-2,7-diazaspiro[3.5]nonane-7-carboxylate]	–	–	–	100 to 1000 nM	–	–	1000 to 10000 nM	–
Cc1c(CN2CCN(C(=O)Oc3cncc(C(N)=O)c3)[C@@H](C)C2)cccc1C(F)(F)F [Example 59, (S)-5-Carbamoylpyridin-3-yl 2-methyl-4-(2-methyl-3-(trifluoromethyl)benzyl)piperazine-1-carboxylate]	50 to 75%	–	> 75%	–	–	–	–	–
Cc1c(C#N)cncc1OC(=O)N1CCN(Cc2cccc(C(F)(F)F)c2C)C[C@H]1C [Example 83, 5-Cyano-4-methylpyridin-3-yl (R)-2-methyl-4-(2-methyl-3-(trifluoromethyl)benzyl)piperazine-1-carboxylate]	> 75%	–	> 75%	100 to 1000 nM	–	–	< 100 nM	–
O=C(Oc1cncc(C(F)(F)F)c1)N1CCC2(CC1)CN(Cc1cccc(Oc3cccc(C(F)(F)F)n3)c1)C2 [Example 12, 5-(Trifluoromethyl)pyridin-3-yl 2-(3-((6-(trifluoromethyl)pyridin-2-yl)oxy)benzyl)-2,7-diazaspiro[3.5]nonane-7-carboxylate]	50 to 75%	–	> 75%	–	–	–	–	–
CC(C)Oc1ccc(CN2CCN(C(=O)Oc3cncc(C(N)=O)c3)CC2)c(OC(F)(F)F)c1 [Example 18, 5-Carbamoylpyridin-3-yl 4-(4-isopropoxy-2-(trifluoromethoxy)benzyl)piperazine-1-carboxylate]	> 75%	100 to 1000 nM	> 75%	100 to 1000 nM	> 75%	> 75%	–	–
Cc1c(OC(=O)N2CCN(Cc3cccc(C(F)(F)F)c3C)C[C@H]2C)cncc1C(N)=O [Example 82, 5-Carbamoyl-4-methylpyridin-3-yl (R)-2-methyl-4-(2-methyl-3-(trifluoromethyl)benzyl)piperazine-1-carboxylate]	> 75%	–	0 to 25%	–	–	–	–	–
C[C@@H]1CN(Cc2cccc(OC(F)(F)F)c2)CCN1C(=O)Oc1cncc(C(N)=O)c1 [Example 74, (R)-5-Carbamoylpyridin-3-yl 2-methyl-4-(3-(trifluoromethoxy)benzyl)piperazine-1-carboxylate]	> 75%	–	25 to 50%	100 to 1000 nM	> 75%	> 75%	< 100 nM	–
